From patent US8895579B2, “Heterotricyclic AMPA receptor antagonists for treatment of epilepsy, pain, and other neurological disorders and diseases” (Northwestern University, priority 2010, dated 2014)
Entries after “also recorded” stand apart in the source; their conditions may differ.

Assays:
[1] = system: primary hippocampal neurons; assay: In vitro model of status epilepticus (Mg2+ removal, 2 μM glycine), action potential firing in hippocampal neurons; format: cell-based; conditions: 1 μM; SE 2.0±0.3 Hz
Description: (§1) Experiments involving primary hippocampal neurons were carried out as described previously (Vivithanaporn et al., 2007). Dissociated neurons were cultured from E18 prenatal hippocampi and were used for analysis from between 17 and 28 days in vitro. The extracellular solution was the same as used for recombinant receptor analysis, while the internal solution for voltage clamp recordings contained (in mM) 95 CsF, 25 CsCl, 10 Cs-HEPES, 10 EGTA, 2 NaCl, 2 Mg-ATP, 10 QX-314, 5 TEA. and 5 4-AP (pH 7.3) and the internal solution for current clamp recordings contained (in mM) 120 KMeSO4, 5 KCl, 5 NaCl, 1 MgCl2, 11 Na-HEPES, 10 phosphocreatine, 4 Na-ATP, and 0.3 Na-GTP (pH 7.0). Borosilicate patch electrodes were pulled and fire polished to 3-5 MΩ resistance. Both whole cell current clamp and voltage clamp recordings were performed using an Axopatch 200B amplifier (MDS, Sunnyvale, Calif.) and filtered at 20 kHz. Gigaohm seals were established in voltage clamp mode and, after membrane rupture, the recordings were carried out either in voltage clamp (clamped at Vm=−70 mV) with a […] series resistance, which was compensated to ˜60%, or in current clamp mode ([…]) with the bridge balance was corrected and pipette resistance neutralized. In vitro status epilepticus (SE) was induced as described previously (Deshpande et al., 2007; Pal et al., 1999) and action potentials were recorded in current clamp mode. Briefly for in vitro SE, magnesium-containing external solution was exchanged for external solution without magnesium and supplemented with 2 μM glycine. This solution exchange produced a period of rapid depolarization and increased AP firing, followed by a period of channel inactivation and reduced AP firing. After channel inactivation, neurons characteristically would hyperpolarize to hold at a membrane voltage (Vm) which was depolarized relative to control Vm, with an increase in AP firing frequency. […] External solutions were bath-applied at a flow rate of 1.5-2 ml/minute. After recording a basal control period, IKM compounds were applied for five minutes (10 minutes for in vitro SE experiments) and changes in excitatory post-synaptic current (EPSC) charge transfer or action potential (AP) frequency were analyzed during the last two minutes of IKM application.
Several AMPA receptor selective antagonists reduce neuronal hyperactivity in both acute brain slice preparations and in in vitro models of epilepsy (Grasso et al., 1999; Szabados et al., 2001). […] We therefore tested the efficacy of IKM-159 in reducing the hyperactive neuronal phenotype in dissociated hippocampal neurons using an in vitro model of status epilepticus (SE) (Deshpande et al., 2007; Pal et al., 1999). […]

AMPA receptors = conditions: cited from earlier work; for concentration range inhibiting AMPA receptors: Bleakman et al., 1996
[2] = biological target: T1, recombinant homomeric GluA4 AMPA receptor (Rattus norvegicus, UniProt P19493); assay: Whole-cell patch clamp of recombinant GluA4 receptors in HEK293-T/17 cells; format: cell-based; conditions: for remaining activity at 30 µM: HEK293T/17, read-out: GluA4 peak current as percent of control amplitude; for inhibition at 30 µM: HEK293T/17, read-out: reduction from control GluA4 peak glutamate current amplitude (percent inhibition)
T1 construct: expressed in transfected cells; host or cells: HEK293-T/17 (CRL-11268)
T1 sequence (P19493 21-902 isoform P19493-2 limits assumed): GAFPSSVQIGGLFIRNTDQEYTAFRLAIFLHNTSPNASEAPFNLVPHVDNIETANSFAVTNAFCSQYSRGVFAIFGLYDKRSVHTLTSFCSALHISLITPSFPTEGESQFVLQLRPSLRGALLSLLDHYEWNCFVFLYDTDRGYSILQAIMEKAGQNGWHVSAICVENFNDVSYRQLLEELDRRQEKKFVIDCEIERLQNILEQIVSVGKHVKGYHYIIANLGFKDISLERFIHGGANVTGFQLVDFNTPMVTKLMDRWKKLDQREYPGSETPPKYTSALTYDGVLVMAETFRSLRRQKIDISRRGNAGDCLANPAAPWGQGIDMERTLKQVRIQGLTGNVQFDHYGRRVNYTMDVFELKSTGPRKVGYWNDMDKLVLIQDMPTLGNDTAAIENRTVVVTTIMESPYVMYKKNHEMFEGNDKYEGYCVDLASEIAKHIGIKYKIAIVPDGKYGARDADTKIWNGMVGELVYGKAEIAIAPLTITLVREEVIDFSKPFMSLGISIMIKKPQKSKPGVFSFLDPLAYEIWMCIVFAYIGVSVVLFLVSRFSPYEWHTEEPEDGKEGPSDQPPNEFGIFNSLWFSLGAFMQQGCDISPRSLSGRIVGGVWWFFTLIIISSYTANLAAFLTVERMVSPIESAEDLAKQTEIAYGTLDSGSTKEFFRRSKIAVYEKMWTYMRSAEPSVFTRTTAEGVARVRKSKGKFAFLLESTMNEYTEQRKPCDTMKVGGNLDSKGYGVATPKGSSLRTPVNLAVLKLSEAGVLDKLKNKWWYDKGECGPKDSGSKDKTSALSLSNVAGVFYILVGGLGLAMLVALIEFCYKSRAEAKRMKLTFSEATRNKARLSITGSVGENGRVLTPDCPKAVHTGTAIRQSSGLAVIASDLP
Description: Cell Culture and Transfection. Human embryonic kidney cells expressing T-antigen, clone 17 (HEK293-T/17) (CRL-11268) were cultured at 37° C. with 5% CO2 in DMEM, including 100 μg/mL penicillin, 100 μg/mL streptomycin, and 10% heat-inactivated fetal bovine serum. Cells were split twice per week. For transfection, HEK293-T/17 cells were plated at 3×10^4 cells/cm^2 for pharmacology experiments and 5×10^3 cells/cm^2 for physiology experiments in fresh medium 24 h prior to transfection. Cells were transfected with AMPA or KA receptor plasmid cDNAs using Mirus Trans-IT transfection reagent (Minus Bio Corporation, Madison, Wis.) at a ratio of 1 μg cDNA: 3 μL Trans-1T reagent and maintained in transfection medium overnight followed by a media change the next day. Transfected cells were maintained in this medium until the experiment was conducted (48-72 h total post transfection).
Electrophysiology. For analysis of recombinant receptors, HEK293-T/17 cells were co-transfected with 0.2 μg of iGluR cDNA and 0.05 μg of eGFP. For heterologous GluA1/GluA2 receptors, the GluA1:GluA2 cDNA ratio was 1:6. Two to three days post-transfection, eGFP-expressing cells were lifted from the cover slip and voltage clamped in whole cell mode. The internal solution contained (in mM) 30 CsF, 110 CsCl, 10 HEPES, 4 NaCl, 5 EGTA and 0.5 CaCl2 (pH 7.3), while the extracellular solution contained (in mM) 140 NaCl, 10 glucose, 10 Cs-HEPES, 3 KCl, 2 CaCl2 and 1 MgCl2 (pH 7.3). Borosilicate patch electrodes were pulled and fire polished to 2-3 MO resistance. Lifted cells were maintained in a laminar stream of extracellular solution from a triple-barreled flow pipe, which was rapidly translated using a piezoceramic bimorph for fast application of glutamate or kainate alone or in combination with various antagonists (the 10-90% rise time of glutamate-evoked currents was ˜1 ms). IKM compounds were applied for three minutes with analysis performed on the final one minute of drug application.
Statistical analysis. At least three separate experiments were performed for each assay. For data involving three or more groups, a one-way analysis of variance (ANOVA) was performed with a Tukey-Kramer post hoc test for comparison amongst the groups. For data involving two groups, an unpaired student's t-test was performed; if the standard deviations between the two groups were statistically significant, a Welsh correction was added. If the data involving three or more groups or data involving two groups where multiple treatments were performed on the same sample, a repeated measures ANOVA and paired t-test were used, respectively, for analysis of significance. Dose-inhibition response curves were fitted, with the maximum value constrained to 100 and the minimum value constrained to values greater than or equal to zero, using the following equation in order to calculate the IC50 values: Response=minimum+(maximum−minimum)/(1+(IC50^hill slope/dose^hillslope)) All calculations for statistical analysis were carried out with Graphpad Prism4 software (La Jolla, Calif.). Data are presented as mean±S.E.M. with statistical significance set at p<0.05.

mice = conditions: Ikoma et al., 2008; Oikawa et al., 2009 and unpublished observations; cited from earlier work
[3] = system: AMPA receptor-mediated EPSCs in primary hippocampal neurons; assay: AMPA receptor EPSC charge transfer during spontaneous synaptic bursts, whole-cell voltage clamp, cultured hippocampal neurons; format: cell-based; conditions: 30 μM; for charge transfer during bursts of AMPA receptor-mediated synaptic events as a percent of the charge transfer during the control period: voltage clamped at −70 mV
Description: as §1
We first measured the actions of the IKM compounds on the charge transfer during spontaneously occurring, polysynaptic bursts of AMPA receptor excitatory post-synaptic currents (EPSCs) in cultured hippocampal neurons (recorded in the presence of bicuculline methiodide and picrotoxin to inhibit GABAA receptors and D-APV to inhibit NMDA receptors). […] IKM-159 had the greatest inhibitory effect at a fixed concentration of 30 μM, producing a reduction in charge transfer of 65±5% (n=6, p<0.01). […] Despite the polar chemical nature of the compounds, recoveries to basal EPSC charge transfers were minimal.

[4] = system: primary hippocampal neurons; assay: Spontaneous action potential firing, current clamp, cultured hippocampal neurons; format: cell-based; conditions: 20 μM
Description: as §1
Effects of IKM-159 on neuronal excitability. […] To determine if altered neuronal excitability could contribute to this behavioral phenotype, we examined the effect of IKM-86 and IKM-159 on action potential firing in cultured hippocampal neurons. Spontaneous action potentials were recorded in current-clamp mode before, during and after application of 20 μM IKM-86 and IKM-159. […]

[5] = system: cultured hippocampal neurons; assay: Whole-cell current elicited in cultured hippocampal neurons; format: cell-based; conditions: 30 μM; GABAA and NMDA receptor antagonists present
Description: Experiments involving primary hippocampal neurons were carried out as described previously (Vivithanaporn et al., 2007). Dissociated neurons were cultured from E18 prenatal hippocampi and were used for analysis from between 17 and 28 days in vitro. The extracellular solution was the same as used for recombinant receptor analysis, while the internal solution for voltage clamp recordings contained (in mM) 95 CsF, 25 CsCl, 10 Cs-HEPES, 10 EGTA, 2 NaCl, 2 Mg-ATP, 10 QX-314, 5 TEA. and 5 4-AP (pH 7.3) and the internal solution for current clamp recordings contained (in mM) 120 KMeSO4, 5 KCl, 5 NaCl, 1 MgCl2, 11 Na-HEPES, 10 phosphocreatine, 4 Na-ATP, and 0.3 Na-GTP (pH 7.0). Borosilicate patch electrodes were pulled and fire polished to 3-5 MΩ resistance. Both whole cell current clamp and voltage clamp recordings were performed using an Axopatch 200B amplifier (MDS, Sunnyvale, Calif.) and filtered at 20 kHz. […] In vitro status epilepticus (SE) was induced as described previously (Deshpande et al., 2007; Pal et al., 1999) and action potentials were recorded in current clamp mode. […] After recording a basal control period, IKM compounds were applied for five minutes (10 minutes for in vitro SE experiments) and changes in excitatory post-synaptic current (EPSC) charge transfer or action potential (AP) frequency were analyzed during the last two minutes of IKM application. […]

Compound	remaining activity at 30 µM [2]	inhibition at 30 µM [2]	behavioral phenotype in mice (mice)	reduction from control charge transfer [3]	charge transfer during bursts of AMPA receptor-mediated synaptic events as a percent of the charge transfer during the control period [3]	further results
N#Cc1cc2c(cc1[N+](=O)[O-])=NC(=O)C(=O)N=2 [CNQX, 6-cyano-7-nitroquinoxaline-2,3-dione, reference compound]						AP firing frequency in SE condition with compound [1]: 1.2±0.4 Hz
Cc1cc(-c2ccc(/N=N/c3ccc4c(S(=O)(=O)[O-])cc(S(=O)(=O)[O-])c(N)c4c3O)c(C)c2)ccc1/N=N/c1ccc2c(S(=O)(=O)[O-])cc(S(=O)(=O)[O-])c(N)c2c1O.[Na+].[Na+].[Na+].[Na+] [EB]						IC50 (AMPA receptors; non-competitive antagonist, Keller et al., 1993, Weigand et al., 1998): high nanomolar-low micromolar range
CC1=NN=C(c2ccc(N)cc2)c2cc3c(cc2C1)OCO3 [GYKI 52466]						concentration range inhibiting AMPA receptors (AMPA receptors): low micromolar range
CNC(=O)N1N=C(c2ccc(N)cc2)c2cc3c(cc2CC1C)OCO3 (stereo not drawn) [GYKI 53655]						concentration range inhibiting AMPA receptors (AMPA receptors): low micromolar range
O=C(O)C[C@@]12O[C@H]3C=CCN[C@H]3C1C(=O)N[C@H]2C(=O)O (stereo partly drawn) [IKM-27]	80 ± 6%	20 ± 6%	hypoactive phenotypes similar to cataleptic states	31±9%	70±9%	
O=C(O)C[C@@]12O[C@H]3[C@H](O)[C@H](O)CO[C@H]3C1CN[C@H]2C(=O)O (stereo partly drawn) [IKM-86]	81 ± 2%	19 ± 2%	hypoactive phenotypes similar to cataleptic states; also recorded: marked hypoactivity and immobility	42±8%	58±8%	persistence of reduction in action potential firing frequency after removal of compound [4]: prolonged; action potential firing frequency in presence of compound ([4]; basal (spontaneous) firing): 0.9±0.3 Hz
O=C(O)C[C@@]12O[C@H]3CCCCO[C@H]3C1CN[C@H]2C(=O)O (stereo partly drawn) [IKM-98]	88 ± 2%	12 ± 2%	varying degrees of hyperactivity	11±14%	89±14%	whole-cell current elicited [5]: 380±160 pA
O=C(O)C[C@@]12O[C@H]3[C@H](O)[C@H](O)CCO[C@H]3C1CN[C@H]2C(=O)O (stereo partly drawn) [IKM-107]	95 ± 2%	5 ± 2%	varying degrees of hyperactivity	39±12%	62±12%	whole-cell current elicited [5]: 47±11 pA
O=C(O)C[C@@]12O[C@H]3CCCO[C@H]3C1CN[C@H]2C(=O)O (stereo partly drawn) [IKM-110]	86 ± 2%	14 ± 2%	varying degrees of hyperactivity	34±12%	66±12%	
